# System: HEK293 cells expressing ΔCR PrP
# Assay: cells
# Assay type: cell-based
# Set-up: Emax: dose or concentration left out as unconfirmed
# Conditions: HEK293, 48 h, read-out: % RMAX: maximum rescuing effect, expressed as percentage of the effect of SM3(LD24) at the same concentration
row,SMILES,Emax
1,C=CCNC(=O)CN1c2ccc(Br)cc2-c2ccccc2S1(=O)=O [SM164],53.7%

# Same assay, conditions: HEK293, 48 h; 1 μM; read-out: % RMAX: maximum rescuing effect, expressed as percentage of the effect of SM3(LD24) at the same concentration
row,SMILES,Emax at 1 µM
1,"O=C(CN1c2c(Br)cccc2-c2ccccc2S1(=O)=O)NC1CCCCC1 [SM227, 2-(7-Bromo-5,5-dioxido-6H-dibenzo[c,e][1,2]thiazin-6-yl)-N-cyclohexylacetamide]",41.1%
2,"O=C(CN1c2cc(Cl)c(F)cc2-c2ccccc2S1(=O)=O)NC1CCCCC1 [SM336, 2-(8-chloro-9-fluoro-5,5-dioxido-6H-dibenzo[c,e][1,2]thiazin-6-yl)-N-cyclohexylacetamide]",119%
3,"O=C(CN1c2cccc(Cl)c2-c2ccccc2S1(=O)=O)NC1CCCCC1 [SM585, 2-(10-chloro-5,5-dioxido-6H-dibenzo[c,e][1,2]thiazin-6-yl)-N-cyclohexylacetamide]",71.7%
4,CC(C)(C)NC(=O)CN1c2ccc(Br)cc2-c2ccccc2S1(=O)=O [SM177],58.4%
5,COCCNC(=O)CN1c2ccc(Br)cc2-c2ccccc2S1(=O)=O [SM170],36.9%
6,"O=C(CN1c2ccc(C(F)(F)F)cc2-c2ccccc2S1(=O)=O)N[C@H]1CC[C@H](O)CC1 [SM588, 2-[5,5-dioxido-9-(trifluoromethyl)-6H-dibenzo[c,e][1,2]thiazin-6-yl]-N-(trans-4-hydroxycyclohexyl)acetamide]",10.6%
7,"CN(C(=O)CN1c2ccc(Br)cc2-c2ccccc2S1(=O)=O)C1CCCCC1 [SM8, 2-(9-Bromo-5,5-dioxido-6H-dibenzo[c,e][1,2]thiazin-6-yl)-N-cyclohexyl-N-methylacetamide]",46.2%
8,CCC(C)NC(=O)CN1c2ccc(Br)cc2-c2ccccc2S1(=O)=O (stereo not shown) [SM175],66.2%
9,CC(C)NC(=O)CN1c2ccc(Br)cc2-c2ccccc2S1(=O)=O [SM169],59.1%
10,O=C(CN1c2ccc(Br)cc2-c2ccccc2S1(=O)=O)NCc1ccccc1 [SM166],48.6%
11,"O=C(CN1c2cc(Cl)cc(Cl)c2-c2ccccc2S1(=O)=O)NC1CCCCC1 [SM587, N-cyclohexyl-2-(8,10-dichloro-5,5-dioxido-6H-dibenzo[c,e][1,2]thiazin-6-yl)acetamide]",168%
12,O=C(CN1c2ccc(F)cc2-c2ccccc2S1(=O)=O)NC1CCCC1 [SM219],54%
13,"O=C(CN1c2ccc(Br)cc2-c2ccccc2S1(=O)=O)NC1CCCC1 [SM4, 2-(9-Bromo-5,5-dioxido-6H-dibenzo[c,e][1,2]thiazin-6-yl)-N-cyclopentylacetamide]",66.6%
14,O=C(CN1c2ccc(Br)cc2-c2ccccc2S1(=O)=O)Nc1cccnc1 [SM221],44.9%
15,CC(C)C(NC(=O)CN1c2ccc(Br)cc2-c2ccccc2S1(=O)=O)C(C)C [SM223],54.7%
16,"O=C(CN1c2cccc(C(F)(F)F)c2-c2ccccc2S1(=O)=O)NC1CCCCC1 [SM339, N-cyclohexyl-2-[5,5-dioxido-10-(trifluoromethyl)-6H-dibenzo[c,e][1,2]thiazin-6-yl]acetamide]",112%
17,"O=C(CN1c2ccc(O)cc2-c2ccccc2S1(=O)=O)NC1CCCCC1 [SM226, N-Cyclohexyl-2-(9-hydroxy-5,5-dioxido-6H-dibenzo[c,e][1,2]thiazin-6yl)acetamide]",37.9%
18,CC(C)c1ccc2c(c1)-c1ccccc1S(=O)(=O)N2CC(=O)NC1CCCCC1 [SM180],44%
19,"O=C(CN1c2cc(C(F)(F)F)ccc2-c2ccccc2S1(=O)=O)NC1CCCCC1 [SM338, N-cyclohexyl-2-[5,5-dioxido-8-(trifluoromethyl)-6H-dibenzo[c,e][1,2]thiazin-6-yl]acetamide]",87.6%
20,CC(C)CNC(=O)CN1c2ccc(Br)cc2-c2ccccc2S1(=O)=O [SM174],56.3%
21,"O=C(CN1c2ccc(C(F)(F)F)cc2-c2ccccc2S1(=O)=O)N[C@H]1CC[C@H](OS(=O)(=O)c2ccc([N+](=O)[O-])cc2)CC1 [SM589, trans-4-({2-[5,5-dioxido-9-(trifluoromethyl)-6H-dibenzo[c,e][1,2]thiazin-6-yl]acetyl}amino)cyclohexyl 4-nitrobenzenesulfonate]",116%
22,O=C(CN1c2ccc(Br)cc2-c2ccccc2S1(=O)=O)NC1CCCCCCC1 [SM162],71.8%
23,O=C(CN1c2ccc(Br)cc2-c2ccccc2S1(=O)=O)NCCCn1ccnc1 [SM220],51.7%
24,"O=C(CN1c2ccc(C(F)(F)F)cc2-c2ccccc2S1(=O)=O)Nc1ccnc(Cl)c1 [SM880, N-(2-chloropyridin-4-yl)-2-[5,5-dioxido-9-(trifluoromethyl)-6H-dibenzo[c,e][1,2]thiazin-6-yl]acetamide]",78.3%
25,"O=C(CN1c2ccccc2-c2ccccc2S1(=O)=O)NC1CCCCC1 [SM7, 2-(5,5-dioxido-6H-dibenzo[c,e][1,2]thiazin-6-yl)-N-cyclohexylacetamide]",55.9%

row,SMILES,Emax at 1 µM
1,CC(C)(C)NC(=O)CN1c2ccc(Cl)cc2-c2ccccc2S1(=O)=O [SM179],59.8%
2,"O=C(CCN1c2ccc(Br)cc2-c2ccccc2S1(=O)=O)NC1CCCCC1 [SM10, 3-(9-Bromo-5,5-dioxido-6H-dibenzo[c,e][1,2]thiazin-6-yl)-N-cyclohexylpropanamide]",45.1%
3,"O=C(CN1c2cc(Cl)ccc2-c2ccccc2S1(=O)=O)NC1CCCCC1 [SM586, 2-(8-chloro-5,5-dioxido-6H-dibenzo[c,e][1,2]thiazin-6-yl)-N-cyclohexylacetamide]",181%
4,"O=C1C(N2c3ccc(Br)cc3-c3ccccc3S2(=O)=O)CCN1C1CCCCC1 (racemic) [SM11, (R,S)-3-(9-Bromo-5,5-dioxido-6H-dibenzo[c,e][1,2]thiazin-6-yl)-1-cyclohexylpyrrolidin-2-one]",43.9%
5,"O=C(CN1c2ccc(F)c(Cl)c2-c2ccccc2S1(=O)=O)NC1CCCCC1 [SM337, 2-(10-chloro-9-fluoro-5,5-dioxido-6H-dibenzo[c,e][1,2]thiazin-6-yl)-N-cyclohexylacetamide]",109%
6,"O=C(CN1c2ccc(Cl)cc2-c2ccccc2S1(=O)=O)NC1CCCCC1 [SM254, 2-(9-chloro-5,5-dioxido-6H-dibenzo[c,e][1,2]thiazin-6-yl)-N-cyclohexylacetamide]",127%
7,O=C(CN1c2ccc(Br)cc2-c2ccccc2S1(=O)=O)NCC1CCCO1 (stereo not shown) [SM172],40.6%
8,O=C(CN1c2ccc(Br)cc2-c2ccccc2S1(=O)=O)NCCN1CCOCC1 [SM178],44%
9,O=C(CN1c2ccc(F)cc2-c2ccccc2S1(=O)=O)NC12CC3CC(CC(C3)C1)C2 [SM224],71.5%
10,"O=C(CN1c2ccc(Br)cc2-c2ccccc2S1(=O)=O)Nc1ccccc1 [SM6, 2-(9-bromo-5,5-dioxo-6H-dibenzo[c,e][1,2]thiazin-6 (5H)-yl)-N-phenylacetamide]",48.1%
11,"COc1ccc2c(c1)-c1ccccc1S(=O)(=O)N2CC(=O)NC1CCCCC1 [SM225, N-Cyclohexyl-2-(9-methoxy-5,5-dioxido-6H-dibenzo[c,e][1,2]thiazin-6-yl)acetamide]",61.5%
12,O=C(CN1c2ccc(Br)cc2-c2ccccc2S1(=O)=O)NCc1ccco1 [SM167],56.6%
13,"O=C(CN1c2ccc(Br)cc2-c2ccccc2S1(=O)=O)NC1CCCCCC1 [SM5, 2-(9-Bromo-5,5-dioxido-6H-dibenzo[c,e][1,2]thiazin-6-yl)-N-cycloheptylacetamide]",52.8%
14,O=C(CN1c2ccc(Br)cc2-c2ccccc2S1(=O)=O)Nc1c(F)cccc1F [SM163],104%
15,"CN(C)CCOc1ccc2c(c1)-c1ccccc1S(=O)(=O)N2CC(=O)NC1CCCCC1 [SM230, N-Cyclohexyl-2-[9-[2-(dimethylamino)ethoxy]-5,5-dioxido-6H-dibenzo[c,e][1,2]thiazin-6-yl]acetamide]",44.9%
16,Cc1ccc2c(c1)-c1ccccc1S(=O)(=O)N2CC(=O)NC1CCCCC1 [SM181],59.4%
17,O=C(CN1c2ccc(Br)cc2-c2ccccc2S1(=O)=O)NC1CC1 [SM165],65.6%
18,"O=S1(=O)c2ccccc2-c2cc(Br)ccc2N1CCNC1CCCCC1 [SM9, N-[2-(9-bromo-5,5-dioxido-6H-dibenzo[c,e][1,2]thiazin-6-yl)ethyl]cyclohexanamine]",45.2%
19,O=C(CN1c2ccc(Br)cc2-c2ccccc2S1(=O)=O)NCCC1=CCCCC1 [SM173],66%
20,"CSc1ccc2c(c1)-c1ccccc1S(=O)(=O)N2CC(=O)NC1CCCCC1 [SM340, N-cyclohexyl-2-[9-(methylthio)-5,5-dioxido-6H-dibenzo[c,e][1,2]thiazin-6-yl]acetamide]",23%
21,CC(=O)c1cccc(NC(=O)CN2c3ccc(Br)cc3-c3ccccc3S2(=O)=O)c1 [SM168],46.2%
22,O=C(CN1c2ccc(Br)cc2-c2ccccc2S1(=O)=O)NCc1ccccn1 [SM176],37.9%
23,"Cc1n[nH]c2c1N(CC(=O)NC1CCCCC1)S(=O)(=O)c1ccccc1-2 [SM879, N-cyclohexyl-2-(3-methyl-5,5-dioxidopyrazolo[4,3-c][1,2]benzothiazin-4 (1H)-yl)acetamide]",22.5%
24,Cc1cccc(NC(=O)CN2c3ccc(Br)cc3-c3ccccc3S2(=O)=O)c1 [SM171],102%
25,O=C(CN1c2ccc(Br)cc2-c2ccccc2S1(=O)=O)Nc1ccc(F)cc1 [SM222],85.1%

# Same assay, conditions: HEK293, read-out: IC50 (rescuing dose at 50%)
row,SMILES,IC50
1,"O=C(CN1c2cc(Cl)c(F)cc2-c2ccccc2S1(=O)=O)NC1CCCCC1 [SM336, 2-(8-chloro-9-fluoro-5,5-dioxido-6H-dibenzo[c,e][1,2]thiazin-6-yl)-N-cyclohexylacetamide]",0.1 µM
2,"O=C(CN1c2cc(Cl)cc(Cl)c2-c2ccccc2S1(=O)=O)NC1CCCCC1 [SM587, N-cyclohexyl-2-(8,10-dichloro-5,5-dioxido-6H-dibenzo[c,e][1,2]thiazin-6-yl)acetamide]",0.6 µM
3,"O=C(CN1c2cccc(C(F)(F)F)c2-c2ccccc2S1(=O)=O)NC1CCCCC1 [SM339, N-cyclohexyl-2-[5,5-dioxido-10-(trifluoromethyl)-6H-dibenzo[c,e][1,2]thiazin-6-yl]acetamide]",0.34 µM
4,"O=C(CN1c2ccc(C(F)(F)F)cc2-c2ccccc2S1(=O)=O)N[C@H]1CC[C@H](OS(=O)(=O)c2ccc([N+](=O)[O-])cc2)CC1 [SM589, trans-4-({2-[5,5-dioxido-9-(trifluoromethyl)-6H-dibenzo[c,e][1,2]thiazin-6-yl]acetyl}amino)cyclohexyl 4-nitrobenzenesulfonate]",1.05 µM
5,"O=C(CN1c2cc(Cl)ccc2-c2ccccc2S1(=O)=O)NC1CCCCC1 [SM586, 2-(8-chloro-5,5-dioxido-6H-dibenzo[c,e][1,2]thiazin-6-yl)-N-cyclohexylacetamide]",0.35 µM
6,"O=C(CN1c2ccc(F)c(Cl)c2-c2ccccc2S1(=O)=O)NC1CCCCC1 [SM337, 2-(10-chloro-9-fluoro-5,5-dioxido-6H-dibenzo[c,e][1,2]thiazin-6-yl)-N-cyclohexylacetamide]",0.97 µM
7,"O=C(CN1c2ccc(Cl)cc2-c2ccccc2S1(=O)=O)NC1CCCCC1 [SM254, 2-(9-chloro-5,5-dioxido-6H-dibenzo[c,e][1,2]thiazin-6-yl)-N-cyclohexylacetamide]",0.3 µM
